Results published in the NIST ThermoML archive (doi:10.1016/j.jct.2016.06.016).
Numbers after ± are expanded uncertainties.

Assay: xn = mol fraction of the nth substance listed
Conditions: 100 kPa, Liquid; for viscosity: Concentric cylinders viscometry; for mass density: Vibrating tube method

CCOC(=O)CCC(=O)OCC [diethyl butanedioate] + CCCCO
Conditions | mass density, 308.15 K [kg/m3] | mass density, 313.15 K [kg/m3] | mass density, 318.15 K [kg/m3] | mass density, 323.15 K [kg/m3] | viscosity, 308.15 K [mPa·s] | viscosity, 313.15 K [mPa·s] | viscosity, 318.15 K [mPa·s] | viscosity, 323.15 K [mPa·s]
x1 = 0.1 | 834.83 ± 0.81 | 830.64 ± 0.81 | 826.42 ± 0.81 | 822.17 ± 0.81 | 1.65 ± 0.015 | 1.49 ± 0.014 | 1.337 ± 0.013 | 1.218 ± 0.011
x1 = 0.2001 | 867.03 ± 0.81 | 862.62 ± 0.81 | 858.18 ± 0.81 | 853.72 ± 0.81 | 1.515 ± 0.014 | 1.379 ± 0.013 | 1.245 ± 0.012 | 1.142 ± 0.011
x1 = 0.3 | 895.21 ± 0.81 | 890.63 ± 0.81 | 886.02 ± 0.81 | 881.38 ± 0.81 | 1.482 ± 0.014 | 1.355 ± 0.013 | 1.226 ± 0.012 | 1.129 ± 0.011
x1 = 0.3999 | 920.02 ± 0.81 | 915.3 ± 0.81 | 910.54 ± 0.81 | 905.78 ± 0.81 | 1.492 ± 0.014 | 1.366 ± 0.013 | 1.239 ± 0.012 | 1.143 ± 0.011
x1 = 0.5 | 942.04 ± 0.81 | 937.2 ± 0.81 | 932.33 ± 0.81 | 927.46 ± 0.81 | 1.52 ± 0.014 | 1.394 ± 0.013 | 1.266 ± 0.012 | 1.169 ± 0.011
x1 = 0.6001 | 961.72 ± 0.81 | 956.78 ± 0.81 | 951.83 ± 0.81 | 946.87 ± 0.82 | 1.564 ± 0.015 | 1.437 ± 0.014 | 1.307 ± 0.013 | 1.208 ± 0.012
x1 = 0.6998 | 979.42 ± 0.82 | 974.41 ± 0.82 | 969.38 ± 0.82 | 964.35 ± 0.82 | 1.635 ± 0.016 | 1.502 ± 0.015 | 1.367 ± 0.013 | 1.264 ± 0.013
x1 = 0.7999 | 995.63 ± 0.82 | 990.55 ± 0.82 | 985.47 ± 0.82 | 980.38 ± 0.82 | 1.741 ± 0.017 | 1.596 ± 0.015 | 1.451 ± 0.014 | 1.342 ± 0.013
x1 = 0.8997 | 1010.45 ± 0.82 | 1005.31 ± 0.82 | 1000.18 ± 0.82 | 995.05 ± 0.82 | 1.876 ± 0.018 | 1.712 ± 0.017 | 1.556 ± 0.015 | 1.435 ± 0.014
x1 = 1 | 1024.08 ± 0.83 | 1018.9 ± 0.83 | 1013.72 ± 0.83 | 1008.55 ± 0.83 | 2.008 ± 0.02 | 1.821 ± 0.018 | 1.66 ± 0.017 | 1.523 ± 0.015
